Data from patent US20020132800A1, “Dietary supplement composition and method for improving and maintaining healthy skin” (priority 2000, published 2002).

Tests used:
[1] = Stability testing of the preferred embodiment tablet under accelerated storage conditions (ingredient content as % of claim); format: physicochemical; settings: 40 +/- 2 deg C and 75 +/- 5% RH, 150 cc white HDPE bottle
[2] = Dissolution of ingredients from the tablet during accelerated stability testing; format: physicochemical; settings: 40 +/- 2 deg C and 75 +/- 5% RH, 150 cc white HDPE bottle

Row | Compound | Result as % of claim at indicated weeks ([1]; 0 wk) | Result as % of claim at indicated weeks ([1]; 4 wk) | Result as % of claim at indicated weeks ([1]; 8 wk) | Result as % of claim at indicated weeks ([1]; 13 wk) | Result as % of claim at indicated weeks ([1]; 26 wk) | Dissolution, result as % of claim at indicated weeks ([2]; 13 wk) | Dissolution, result as % of claim at indicated weeks ([2]; 26 wk) | Dissolution, result as % of claim at indicated weeks ([2]; 0 wk) | Dissolution, result as % of claim at indicated weeks ([2]; 4 wk) | Dissolution, result as % of claim at indicated weeks ([2]; 8 wk)
1 | Nc1nc2ncc(CNc3ccc(C(=O)N[C@@H](CCC(=O)O)C(=O)O)cc3)nc2c(=O)[nH]1 [Folic Acid] | 169 % of claim | 132 % of claim | 125 % of claim | 120 % of claim | 117 % of claim |  |  |  |  | 
2 | [Cr] [Chromium] | 139 % of claim | 128 % of claim | 120 % of claim | 133 % of claim | 121 % of claim |  |  |  |  | 
3 | [Cu] [Copper] | 115 % of claim | 111 % of claim | 111 % of claim | 114 % of claim | 109 % of claim |  |  |  |  | 
4 | [Mn+2] [Manganese] | 119 % of claim | 114 % of claim | 115 % of claim | 115 % of claim | 113 % of claim |  |  |  |  | 
5 | [Ca+2] [Calcium] |  |  |  | 120 % of claim | 118 % of claim | 119 % of claim | 115 % of claim |  |  | 
6 | CC1=C(/C=C/C(C)=C/C=C/C(C)=C/C=C/C=C(C)/C=C/C=C(C)/C=C/C2=C(C)CCCC2(C)C)C(C)(C)CCC1 [Beta Carotene] | 123 % of claim | 139 % of claim | 130 % of claim | 144 % of claim | 124 % of claim |  |  |  |  | 
7 | [Zn] [Zinc] | 121 % of claim | 109 % of claim | 117 % of claim | 108 % of claim | 112 % of claim | 107 % of claim |  | 117 % of claim | 102 % of claim | 104 % of claim
8 | O=C(O)CCCC[C@@H]1SC[C@@H]2NC(=O)N[C@@H]21 [Biotin] | 105 % of claim | 101 % of claim | 100 % of claim | 114 % of claim | 93.0 % of claim |  |  |  |  | 
9 | [Se] [Selenium] | 103 % of claim | 136 % of claim | 123 % of claim | 129 % of claim | 126 % of claim |  |  |  |  | 

Continued, in another order:

Row | Result as % of claim at indicated weeks ([1]; 0 wk) | Result as % of claim at indicated weeks ([1]; 4 wk) | Result as % of claim at indicated weeks ([1]; 8 wk) | Result as % of claim at indicated weeks ([1]; 13 wk) | Result as % of claim at indicated weeks ([1]; 26 wk) | Compound | Dissolution, result as % of claim at indicated weeks ([2]; 13 wk) | Dissolution, result as % of claim at indicated weeks ([2]; 26 wk) | Dissolution, result as % of claim at indicated weeks ([2]; 0 wk) | Dissolution, result as % of claim at indicated weeks ([2]; 4 wk) | Dissolution, result as % of claim at indicated weeks ([2]; 8 wk)
10 | 108 % of claim | 106 % of claim | 103 % of claim | 114 % of claim | 104 % of claim | O=C1O[C@H]([C@@H](O)CO)C(O)=C1O [Vitamin C] |  |  |  |  | 
11 | 116 % of claim | 109 % of claim | 110 % of claim | 137 % of claim | 114 % of claim | Cc1ncc(CO)c(CO)c1O.Cl [Vitamin B6] |  |  |  |  | 
12 | 136 % of claim | 134 % of claim | 113 % of claim | 106 % of claim | 110 % of claim | Vitamin A |  |  |  |  | 
13 | 108 % of claim |  | 109 % of claim | 122 % of claim | 107 % of claim | Silicon |  |  |  |  | 
14 | 132 % of claim | 123 % of claim | 125 % of claim | 123 % of claim | 123 % of claim | Cc1cc2nc3c(=O)[nH]c(=O)nc-3n(C[C@H](O)[C@H](O)[C@H](O)CO)c2cc1C [Vitamin B2, Riboflavin] | 119 % of claim | 125 % of claim | 133 % of claim | 120 % of claim | 109 % of claim
15 | 126 % of claim | 115 % of claim | 110 % of claim | 125 % of claim | 121 % of claim | Vitamin E |  |  |  |  | 
16 | 131 % of claim | 144 % of claim | 170 % of claim | 156 % of claim | 150 % of claim | CC(C)=CCC/C(C)=C/C=C/C(C)=C/C=C/C(C)=C/C=C/C=C(C)/C=C/C=C(C)/C=C/C=C(\C)CCC=C(C)C [Lycopene] |  |  |  |  | 
